Data taken from patent US9648880B2, “Antifungal agents and uses thereof” (University of Massachusetts, priority 2012, dated 2017).

Assays:
C. albicans SC5314 cells = assay: pretreatment of C. albicans cells, then adhesion assay; type: cell-based, Candida albicans; settings: 25 μM; alamarBlue or GFP detection
Procedure: FIGS. 11A-11D. Compound #4 can coat surfaces and reduce subsequent fungal adhesion. […] is a graph showing the results of pretreatment of polystyrene with candidate compounds. Indicated compounds at 50 μM were incubated in polystyrene 96-well plates overnight. Wells were washed three times with 100 μl of PBS. C. albicans adhesion was then measured using the vital dye alamarBlue, with no additional drug treatment. FIG. 11B is a graph showing titration of compounds #1, 4 and 9 for pre-binding to polystyrene. Indicated concentrations of compounds were pre-incubated with polystyrene plates as above prior to the adhesion assays. FIG. 11C is a graph showing the inhibition of adhesion by pretreatment of C. albicans SC5314 cells with compound #4 prior to introduction to plastic. SC5314 cells were treated with 25 μM compound #4 or DMSO in liquid culture prior to their introduced into polystyrene plates. Cells were washed with PBS prior to resuspension into SCM and seeding into 96-well plates for adhesion assays using alamarBlue detection of remaining cells. […] FIG. 11D is a graph showing the results of an assay performed as in FIG. 11C, except that SC5314-GFP cells were used, and then detected via fluorescence measurement. edt1 indicates non-adherent mutant cells, PBS indicates background fluorescence in absence of cells. […]

Aspergillus fumigatus = assay: Aspergillus hyphal formation; type: cell-based; settings: 50 μM and 100 μM; RPMI overnight
Procedure: FIGS. 26A-26D. Compound #4 inhibits hyphal formation of Aspergillus fumigatus. FIGS. 26A-26B are photographs showing hyphal development occurs normally in RPMI tissue culture media in the absence of treatment (FIG. 26A) and in the presence of 1% DMSO (control; FIG. 26B). Aspergillus hyphal development was inhibited in the presence of 50 μM and 100 μM compound #4 (FIGS. 26C and 26D, respectively).
Compound #4 was also tested for its inhibitory effect on the growth of Aspergillus fumigatus. Fresh Aspergillus fumigatus conidia (spores) were grown in RPMI tissue culture media overnight in the presence of 1% DMSO (control), 50 μM compound #4, 100 μM compound #4, or no treatment (control) using methods similar to those described in Ramirez-Ortiz et al. (Cell Host & Microbe 9:415-424, 2011). […] This is the first step in germination of the spores, and is required for pathogenesis.

Cryptococcus gatti = assay: Cryptococcus proliferation; type: cell-based; settings: 50 μM and 100 μM; 37° C., 18 hours
Procedure: FIGS. 27A and 27B. Compound #4 inhibits proliferation of Cryptococcus gatti.
Compound #4 was also tested for its inhibitory effect on the growth of Cryptococcus gatti. Cryptococcus cells were incubated at 37° C. in unsupplemented RPMI tissue culture media (+Glutamine−Phenol Red (Gibco #11835, Life Technologies, Grand Island, N.Y.; “RPMI”) or RPMI tissue culture media supplemented with 100 U/ml Penicillin/100 ug/ml Streptomycin (Gibco 100× Pen/Strep #151500-122), 1 mM NaPyruvate, and 10 mM HEPES pH 7.0 (“Af medium”) in the presence of 1% DMSO (control), 50 μM compound #4, or 100 μM compound #4, and cell numbers were counted after 18 hours. The assay was also performed with an untreated control.

[1] = tested on: C. albicans constitutively filamentous strains; assay: hyphal development induced by multiple signals (mutant strains, GlcNAc, hydroxyurea); type: cell-based, Candida albicans; design: genotoxic stress-induced filamentation: dose or concentration left out as unconfirmed
Procedure: FIGS. 30A-30E. Compound #4 inhibits hyphal development induced by multiple signals. FIG. 30A is a schematic diagram of some of the signaling pathways that govern hyphal gene expression. For simplicity, only those genes investigated in this figure are shown. FIG. 30B is a series of photomicrographs showing the effects of compound #4 on constitutively filamentous mutant strains in the cAMP-PKA pathway. Wild-type SC5314, efg1-T206E, ras1-G13V, and ADH1pr-gpa2-Q355L cells were grown in the presence of 1% DMSO or 50 μM compound #4 in Spider medium at 37° C. for 4 hrs, stained with Calcofluor white and photographed using DIC or fluorescent microscopy (20× objective). FIG. 30C is a series of two photomicrographs showing that Compound #4 blocks filamentation induced by GlcNAc or constitutive overexpression of the GlcNac-activated transcription factor Cph1. Images obtained as in FIG. 30B. […] SC5314 cells grown in YPD at 30° C. in the presence of 50 mM hydroxyurea (HU) in combination with either 1% DMSO or […]. Images obtained as in FIG. 30B. FIG. 30E is a series of photomicrographs showing that Compound #4 inhibits the hyperfilamentous growth of a strain that constitutively overexpresses the Gpr1 protein. Colonies were grown on solid Spider media agar overlayed with either 1% DMSO or 50 μM #4 and incubated at 37° C. for 3 days. Colony edges were imaged with a 10× objective.
To explore the mechanism of compound #4 action, we tested whether compound #4 would alter hyphal induction in mutants that hyperactivate the filamentation process. For example, hyphal induction by Spider media requires the cyclic AMP-protein kinase A (cAMP-PKA) pathway; FIG. 30A. Stimulation of this pathway drives PKA to phosphorylate transcription factor Efg1, activating Efg1 to increase expression of genes required for hyphal morphogenesis.
For example, the modified sugar N-acetyl-glucosamine (GlcNac) also stimulates hyphal morphogenesis, but does so independently of the cAMP-PKA pathway, instead activating the transcription factor Cph1.
In addition to nutrient-mediated signals, genotoxic stress promotes hyphal morphogenesis in C. albicans, and the DNA damage signaling kinase Rad53 is required for the hyphal transition.

`Cc1ccc(C(=O)N2CCN(c3ccc([N+](=O)[O-])cc3)CC2)cc1Cl` [Compound 4] was tested, and the “adhesion of pre-treated cells” value (C. albicans SC5314 cells) was “could reduce adhesion of pre-treated cells”, the hyphal formation (Aspergillus fumigatus) was “blocks hyphal formation at both concentrations tested” and the “proliferation (cell numbers)” value (Cryptococcus gatti) was “inhibited proliferation of Cryptococcus gatti at both concentrations tested”. The “hyphae driven by GlcNac-containing media or overexpression of Cph1” value [1] was “also inhibits formation of hyphae in these cases”, the “morphology of hyperfilamentous cAMP-PKA pathway mutants (ras1-G13V, gpa2-Q355L, efg1-T206E)” value ([1]; 50 μM, Spider medium 37° C., 4 hrs) was “retained a planktonic, budded morphology” and the “hyphal morphogenesis of cells overexpressing Gpr1” value ([1]; 50 μM, solid Spider media, 37° C., 3 days) was “blocked hyphal morphogenesis in these cells”. The genotoxic stress-induced filamentation ([1]; YPD 30° C.) was “form hyphae regardless of the presence of compound #4”.
